Laboratory results reported in patent publication US12084472B2 (Ardelyx, Inc., priority 2015, dated 2024).

Each molecule was assayed against T1, human TGR5 (Homo sapiens, UniProt Q8TDU6) (assay: Cell-based TGR5 assay (cAMP generation, HTRF)). Conditions: HEK293 cells stably transfected with human TGR5; cAMP by HTRF; 30 minutes at 37° C.; read-out: pEC50 Human TGR5 (converted).
T1 construct: expressed in transfected cells; host or cells: HEK293
T1 sequence (Q8TDU6 1-330): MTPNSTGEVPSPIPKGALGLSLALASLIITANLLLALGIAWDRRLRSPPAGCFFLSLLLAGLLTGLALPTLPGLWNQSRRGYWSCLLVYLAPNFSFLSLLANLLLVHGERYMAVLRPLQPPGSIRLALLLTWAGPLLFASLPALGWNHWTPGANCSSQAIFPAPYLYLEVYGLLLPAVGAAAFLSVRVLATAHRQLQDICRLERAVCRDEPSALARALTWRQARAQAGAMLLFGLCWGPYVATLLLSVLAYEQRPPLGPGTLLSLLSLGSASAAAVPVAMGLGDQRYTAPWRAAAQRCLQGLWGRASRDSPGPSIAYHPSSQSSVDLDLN
Summary of the method: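 Read-out was HTRF detection of cAMP, converted to concentration via a standard curve and fitted (3-parameter logistic) for pEC50 and maximal response. Agonist stimulation used HEK293 cells stably transfected with human TGR5, incubated 30 min at 37° C in IBMX-containing buffer at 0.05 nM to 10 μM compound.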

Compound | EC50 [nM]
CN(C[C@H](O)[C@@H](O)[C@H](O)[C@H](O)CO)C(=O)CCCCc1cc(Cl)c(COC2(c3cnccc3-c3ccccc3OC3COC3)CC2)cc1Cl [Compound I-192, 5-{2,5-dichloro-4-[(1-{4-[2-(oxetan-3-yloxy)phenyl]pyridin-3-yl}cyclopropoxy)methyl]phenyl}-N-methyl-N-[(2S,3R,4R,5R)-2,3,4,5,6-pentahydroxyhexyl]pentanamide] | < 100
O=C(CCN1CCN(S(=O)(=O)c2ccc(Cl)c(COC3(c4cnccc4-c4ccccc4OC4CC4)CC3)c2)CC1)NC[C@H](O)[C@@H](O)[C@H](O)[C@H](O)CO [Compound I-443, 3-{4-[4-chloro-3-({1-[4-(2-cyclopropoxyphenyl)pyridin-3-yl]cyclopropoxy}methyl)benzenesulfonyl]piperazin-1-yl}-N-[(2S,3R,4R,5R)-2,3,4,5,6-pentahydroxyhexyl]propanamide] | 126 to 1000
CC(CCCN(C(=O)[C@@H](O)[C@@H](O)[C@H](O)[C@@H](O)CO)C1CCOCC1)c1ccc(Cl)c(CNC2(c3cnccc3-c3ccccc3OC3CC3)CC2)c1 (stereo partly drawn) [Compound I-285, (2S,3S,4R,5S)-N-(4-{4-chloro-3-[({1-[4-(2-cyclopropoxyphenyl)pyridin-3-yl]cyclopropyl}amino)methyl]phenyl}pentyl)-2,3,4,5,6-pentahydroxy-N-(oxan-4-yl)hexanamide] | 126 to 1000
COc1ccccc1-c1ccncc1C1(NCc2cc(Cl)c(CCCCC(=O)NC[C@H](O)[C@@H](O)[C@H](O)[C@H](O)CO)cc2Cl)CC1 [Compound I-133, 5-{2,5-dichloro-4-[({1-[4-(2-methoxyphenyl)pyridin-3-yl]cyclopropyl}amino)methyl]phenyl}-N-[(2S,3R,4R,5R)-2,3,4,5,6-pentahydroxyhexyl]pentanamide] | 126 to 1000
O=C(NCCCC1(c2ccc(Cl)c(CNC3(c4cnccc4-c4ccccc4OC4CC4)CC3)c2)CC1)[C@@H](O)[C@@H](O)[C@H](O)[C@@H](O)CO [Compound I-382, (2S,3S,4R,5S)-N-[3-(1-[4-chloro-3-[([1-[4-(2-cyclopropoxyphenyl)pyridin-3-yl]cyclopropyl]amino)methyl]phenyl]cyclopropyl)propyl]-2,3,4,5,6-pentahydroxyhexanamide] | < 100
CC(CCCCCNC(=O)[C@@H](O)[C@@H](O)[C@H](O)[C@@H](O)CO)c1ccc(Cl)c(CNC2(c3cnccc3-c3ccccc3OC3CC3)CC2)c1 (stereo partly drawn) [Compound I-280, (2S,3S,4R,5S)-N-(6-{4-chloro-3-[({1-[4-(2-cyclopropoxyphenyl)pyridin-3-yl]cyclopropyl}amino)methyl]phenyl}heptyl)-2,3,4,5,6-pentahydroxyhexanamide] | < 100
Cc1ccc(C(C)CCCN(CCS(C)(=O)=O)C(=O)[C@@H](O)[C@@H](O)[C@H](O)[C@@H](O)CO)cc1CNC1(c2cnccc2-c2ccccc2OC2CC2)CC1 (stereo partly drawn) [Compound I-305, (2S,3S,4R,5S)-N-(4-{3-[({1-[4-(2-cyclopropoxyphenyl)pyridin-3-yl]cyclopropyl}amino)methyl]-4-methylphenyl}pentyl)-2,3,4,5,6-pentahydroxy-N-(2-methanesulfonylethyl) hexanamide] | < 100
CN(C)S(=O)(=O)c1ccc(Cl)c(COC2(c3cnccc3-c3ccccc3OC3CC3)CC2)c1 [Compound I-393, 4-chloro-3-([1-[4-(2-cyclopropoxyphenyl)pyridin-3-yl]cyclopropoxy]methyl)-N,N-dimethylbenzene-1-sulfonamide] | < 100
O=C(CCCCCCNS(=O)(=O)c1ccc(Cl)c(COC2(c3cnccc3-c3ccccc3OC3CC3)CC2)c1)NC[C@H](O)[C@@H](O)[C@H](O)[C@H](O)CO [Compound I-432, 7-[4-chloro-3-({1-[4-(2-cyclopropoxyphenyl)pyridin-3-yl]cyclopropoxy}methyl)benzenesulfonamido]-N-[(2S,3R,4R,5R)-2,3,4,5,6-pentahydroxyhexyl]heptanamide] | < 100
Cc1ccccc1-c1ccncc1C1(NCc2cc(Cl)ccc2Cl)CC1 [Compound I-6, N-[(2,5-dichlorophenyl)methyl]-1-[4-(2-methylphenyl)pyridin-3-yl]cyclopropan-1-amine] | 126 to 1000
O=C(NCCCC[C@H](NS(=O)(=O)c1ccc(Cl)c(COC2(c3cnccc3-c3ccccc3OC3CC3)CC2)c1)C(=O)O)NC[C@H](O)[C@@H](O)[C@H](O)[C@H](O)CO [Compound I-483, (2S)-2-[4-chloro-3-({1-[4-(2-cyclopropoxyphenyl)pyridin-3-yl]cyclopropoxy}methyl)benzenesulfonamido]-6-({[(2S,3R,4R,5R)-2,3,4,5,6-pentahydroxyhexyl]carbamoyl}amino)hexanoic acid] | 126 to 1000
O=C(NCCC1CCN(S(=O)(=O)c2ccc(Cl)c(COC3(c4cnccc4-c4ccccc4OC4CC4)CC3)c2)CC1)[C@@H](O)[C@@H](O)[C@H](O)[C@@H](O)CO [Compound I-462, (2S,3S,4R,5S)-N-(2-{1-[4-chloro-3-({1-[4-(2-cyclopropoxyphenyl)pyridin-3-yl]cyclopropoxy}methyl)benzenesulfonyl]piperidin-4-yl}ethyl)-2,3,4,5,6-pentahydroxyhexanamide] | < 100
CCCC(=O)N(CCCCc1cc(Cl)c(COC2(c3cnccc3-c3ccccc3OC3CC3)CC2)cc1Cl)C[C@H](O)[C@@H](O)[C@H](O)[C@H](O)CO [Compound I-74, N-{4-[2,5-dichloro-4-({1-[4-(2-cyclopropoxyphenyl)pyridin-3-yl]cyclopropoxy}methyl)phenyl]butyl}-N-[(2S,3R,4R,5R)-2,3,4,5,6-pentahydroxyhexyl]butanamide] | 126 to 1000

Further lines, results first:

EC50 [nM] | Compound
126 to 1000 | O=C1NCCN1CCN(CCCSc1ccc(Cl)c(CNC2(c3cnccc3-c3ccccc3OC3CC3)CC2)c1)C(=O)[C@@H](O)[C@@H](O)[C@H](O)[C@@H](O)CO [Compound I-531, (2S,3S,4R,5S)-N-[3-({4-chloro-3-[({1-[4-(2-cyclopropoxyphenyl)pyridin-3-yl]cyclopropyl}amino)methyl]phenyl}sulfanyl)propyl]-2,3,4,5,6-pentahydroxy-N-[2-(2-oxoimidazolidin-1-yl)ethyl]hexanamide]
< 100 | CS(=O)(=O)NCCN(CCCCSc1ccc(Cl)c(CNC2(c3cnccc3-c3ccccc3OC3CC3)CC2)c1)C(=O)[C@@H](O)[C@@H](O)[C@H](O)[C@@H](O)CO [Compound I-571, (2S,3S,4R,5S)-N-[4-({4-chloro-3-[({1-[4-(2-cyclopropoxyphenyl)pyridin-3-yl]cyclopropyl}amino)methyl]phenyl}sulfanyl)butyl]-2,3,4,5,6-pentahydroxy-N-(2-methanesulfonamidoethyl) hexanamide]
126 to 1000 | Cc1ccc(SCCCCN(CCCCO)C(=O)[C@@H](O)[C@@H](O)[C@H](O)[C@@H](O)CO)cc1COC1(c2cnccc2-c2ccccc2OC2CC2)CC1 [Compound I-541, (2S,3S,4R,5S)-N-(4-{[3-({1-[4-(2-cyclopropoxyphenyl)pyridin-3-yl]cyclopropoxy}methyl)-4-methylphenyl]sulfanyl}butyl)-2,3,4,5,6-pentahydroxy-N-(4-hydroxybutyl)hexanamide]
126 to 1000 | Cc1ccc(SCCCN(CCOCCO)C(=O)[C@@H](O)[C@@H](O)[C@H](O)[C@@H](O)CO)cc1CNC1(c2cnccc2-c2ccccc2OC2CC2)CC1 [Compound I-545, (2S,3S,4R,5S)-N-[3-({3-[({1-[4-(2-cyclopropoxyphenyl)pyridin-3-yl]cyclopropyl}amino)methyl]-4-methylphenyl}sulfanyl)propyl]-2,3,4,5,6-pentahydroxy-N-[2-(2-hydroxyethoxy)ethyl]hexanamide]
126 to 1000 | CN(C)C(=O)CCN(C[C@H](O)[C@@H](O)[C@H](O)[C@H](O)CO)C(=O)CCCSc1ccc(Cl)c(COC2(c3cnccc3-c3ccccc3OC3CC3)CC2)c1 [Compound I-671, 4-{[4-chloro-3-({1-[4-(2-cyclopropoxyphenyl)pyridin-3-yl]cyclopropoxy}methyl)phenyl]sulfanyl}-N-[2-(dimethylcarbamoyl)ethyl]-N-[(2S,3R,4R,5R)-2,3,4,5,6-pentahydroxyhexyl]butanamide]
126 to 1000 | Clc1ccc(Cl)c(COC2(c3cnccc3-c3ccccc3OC3CC3)CCCC2)c1 [Compound I-742, 4-(2-cyclopropoxyphenyl)-3-(1-((2,5-dichlorobenzyl)oxy)cyclopentyl)pyridine]
< 100 | O=C(NCCCSc1ccc(Cl)c(COC2(c3cnccc3-c3ccccc3OC3CC3)CC2)c1)NC[C@H](O)[C@@H](O)[C@H](O)[C@H](O)CO [Compound I-625, 1-(3-{[4-chloro-3-({1-[4-(2-cyclopropoxyphenyl)pyridin-3-yl]cyclopropoxy}methyl)phenyl]sulfanyl}propyl)-3-[(2S,3R,4R,5R)-2,3,4,5,6-pentahydroxyhexyl]urea]
< 100 | O=C([C@@H](O)[C@@H](O)[C@H](O)[C@@H](O)CO)N(CCCCO)CCCCSc1ccc(Cl)c(CNC2(c3cnccc3-c3ccccc3OC3CC3)CC2)c1 [Compound I-534, (2S,3S,4R,5S)-N-[4-({4-chloro-3-[({1-[4-(2-cyclopropoxyphenyl)pyridin-3-yl]cyclopropyl}amino)methyl]phenyl}sulfanyl)butyl]-2,3,4,5,6-pentahydroxy-N-(4-hydroxybutyl)hexanamide]
126 to 1000 | O=C(NCCCCCOc1ccc(Cl)c(COC2(c3cnccc3-c3ccccc3OC3CC3)CC2)c1)N[C@@H](CO)[C@@H](O)[C@H](O)[C@H](O)CO [Compound I-760, 1-(5-(4-chloro-3-((1-(4-(2-cyclopropoxyphenyl)pyridin-3-yl)cyclopropoxy)methyl)phenoxy)pentyl)-3-((2S,3R,4S,5R)-1,3,4,5,6-pentahydroxyhexan-2-yl)urea]
